Measurements: BindingDB's records for doi:10.7270/Q25H7DQC (Nmmlsc, 2009)

target: Ras-related protein Rab-2A (Canis lupus familiaris, UniProt P61105); test: fluorescent GTP competition at wildtype Rab2A – biochemical, multiplex dose response, Bodipy-FL-GTP, flow cytometry, SAR follow-up (AID 2033); details: not given
Sequence (P61105 whole entry): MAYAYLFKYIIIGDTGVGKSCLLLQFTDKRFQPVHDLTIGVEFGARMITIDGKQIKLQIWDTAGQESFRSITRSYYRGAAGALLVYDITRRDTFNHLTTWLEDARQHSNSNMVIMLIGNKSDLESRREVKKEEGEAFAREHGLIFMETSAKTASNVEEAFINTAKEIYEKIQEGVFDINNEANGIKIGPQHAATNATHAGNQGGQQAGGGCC

SMILES | EC50 [µM]
Cc1ccc(C)c(N2CCN(C(=O)CCc3nc(-c4ccccc4C(F)(F)F)no3)CC2)c1 | > 30
Cc1ccc(C)c(N2CCN(C(=O)CCc3nc(-c4ccc(C(F)(F)F)cc4)no3)CC2)c1 [1-[4-(2,5-dimethylphenyl)-1-piperazinyl]-3-[3-[4-(trifluoromethyl)phenyl]-1,2,4-oxadiazol-5-yl]-1-propanone] | > 30
COc1ccc(-c2noc(CCCCC(=O)N3CCN(c4cc(C)ccc4C)CC3)n2)cc1 [1-[4-(2,5-dimethylphenyl)-1-piperazinyl]-5-[3-(4-methoxyphenyl)-1,2,4-oxadiazol-5-yl]-1-pentanone] | > 30
COc1ccc(-c2noc(CC(=O)N3CCN(c4cc(C)ccc4C)CC3)n2)cc1 [1-[4-(2,5-dimethylphenyl)piperazin-1-yl]-2-[3-(4-methoxyphenyl)-1,2,4-oxadiazol-5-yl]ethanone] | > 30
COc1ccc(-c2coc(CCC(=O)N3CCN(c4cc(C)ccc4C)CC3)n2)cc1 [1-[4-(2,5-dimethylphenyl)piperazin-1-yl]-3-[4-(4-methoxyphenyl)-1,3-oxazol-2-yl]propan-1-one] | > 30
COc1ccc(-c2noc(CCC(=O)N3CCN(c4cccc(Br)c4)CC3)n2)cc1 [1-[4-(3-bromophenyl)-1-piperazinyl]-3-[3-(4-methoxyphenyl)-1,2,4-oxadiazol-5-yl]-1-propanone] | > 30
COc1ccc(-c2noc(CCC(=O)N3CCN(c4cccc(F)c4)CC3)n2)cc1 [1-[4-(3-fluorophenyl)piperazin-1-yl]-3-[3-(4-methoxyphenyl)-1,2,4-oxadiazol-5-yl]propan-1-one] | > 30
COc1ccc(-c2noc(CCC(=O)N3CCN(c4ccc(Br)cc4)CC3)n2)cc1 [1-[4-(4-bromophenyl)piperazin-1-yl]-3-[3-(4-methoxyphenyl)-1,2,4-oxadiazol-5-yl]propan-1-one] | > 30
COc1ccc(-c2noc(CCC(=O)N3CCN(c4cccc(C(F)(F)F)c4)CC3)n2)cc1 [1-{3-[3-(4-methoxyphenyl)-1,2,4-oxadiazol-5-yl]propanoyl}-4-[3-(trifluoromethyl)phenyl]piperazine] | > 30
Cc1ccc(C)c(N2CCN(C(=O)CCc3nc(-c4ccccc4Cl)no3)CC2)c1 [3-[3-(2-chlorophenyl)-1,2,4-oxadiazol-5-yl]-1-[4-(2,5-dimethylphenyl)-1-piperazinyl]-1-propanone] | > 30
COc1ccc(-c2noc(CCC(=O)N3CCN(c4ccccc4)CC3)n2)cc1 [3-[3-(4-methoxyphenyl)-1,2,4-oxadiazol-5-yl]-1-(4-phenylpiperazin-1-yl)propan-1-one] | > 30
COc1ccc(-c2noc(CCC(=O)N3CCN(c4ccc(OC)cc4)CC3)n2)cc1 [3-[3-(4-methoxyphenyl)-1,2,4-oxadiazol-5-yl]-1-[4-(4-methoxyphenyl)piperazin-1-yl]propan-1-one] | > 30
COc1ccc(-c2noc(CCC(=O)N3CCN(c4ccc(C(F)(F)F)cc4)CC3)n2)cc1 [3-[3-(4-methoxyphenyl)-1,2,4-oxadiazol-5-yl]-1-[4-[4-(trifluoromethyl)phenyl]piperazin-1-yl]propan-1-one] | > 30
Cc1ccc(C)c(N2CCN(C(=O)CCc3nc(-c4cccc(F)c4)no3)CC2)c1 [KUC103366N] | > 30
Cc1ccc(C)c(N2CCN(C(=O)CCc3nc(-c4cccc(C(F)(F)F)c4)no3)CC2)c1 [KUC103380N] | > 30
COc1ccc(-c2noc(CCC(=O)N3CCN(c4ccc(F)cc4)CC3)n2)cc1 [KUC103398N] | > 30
Cc1ccc(C)c(N2CCN(C(=O)CCc3nc(-c4ccc(N(C)C)cc4)no3)CC2)c1 [KUC103409N] | > 30
COc1ccccc1-c1noc(CCC(=O)N2CCN(c3cc(C)ccc3C)CC2)n1 [UNM-0000306071] | > 30
COc1ccc(-c2noc(CCC(=O)N3CCN(c4ccc(Cl)cc4)CC3)n2)cc1 [UNM-0000306121] | > 30
COc1ccc(-c2noc(CCC(=O)N3CCN(c4cccc(C)c4)CC3)n2)cc1 [UNM-0000306125] | > 30
COc1ccc(-c2cccc(CCC(=O)N3CCN(c4cc(C)ccc4C)CC3)c2)cc1 [UNM-0000306127] | > 30
COc1ccc(-c2cc(CCC(=O)N3CCN(c4cc(C)ccc4C)CC3)[nH]n2)cc1 [UNM-0000306150] | > 30

same assay, conditions: inactive by the depositor's call

SMILES | EC50 [µM]
COc1cccc(-c2noc(CCC(=O)N3CCN(c4cc(C)ccc4C)CC3)n2)c1 | 3.9
Cc1ccc(C)c(N2CCN(C(=O)CCc3nc(-c4ccccc4C)no3)CC2)c1 | 1.67
COc1ccc(-c2noc(CCC(=O)N3CCN(c4cccc(Cl)c4)CC3)n2)cc1 | 8.53
COc1ccc(-c2noc(CCC(=O)N3CCN(c4ccccc4C)CC3)n2)cc1 | 2.54
COc1ccc(-c2ccc(CCC(=O)N3CCN(c4cc(C)ccc4C)CC3)s2)cc1 | 2.48
COc1ccc(-c2noc(CCC(=O)N3CCN(c4cccc(C)c4C)CC3)n2)cc1 [1-[4-(2,3-dimethylphenyl)-1-piperazinyl]-3-[3-(4-methoxyphenyl)-1,2,4-oxadiazol-5-yl]-1-propanone] | 2.31
COc1ccc(-c2noc(CCC(=O)N3CCN(c4cc(C)ccc4C)CC3)n2)cc1 [1-[4-(2,5-dimethylphenyl)-1-piperazinyl]-3-[3-(4-methoxyphenyl)-1,2,4-oxadiazol-5-yl]-1-propanone] | 2.49
Cc1ccc(-c2noc(CCC(=O)N3CCN(c4cc(C)ccc4C)CC3)n2)cc1 [1-[4-(2,5-dimethylphenyl)-1-piperazinyl]-3-[3-(4-methylphenyl)-1,2,4-oxadiazol-5-yl]-1-propanone] | 4.14
Cc1cccc(-c2noc(CCC(=O)N3CCN(c4cc(C)ccc4C)CC3)n2)c1 [1-[4-(2,5-dimethylphenyl)piperazin-1-yl]-3-[3-(3-methylphenyl)-1,2,4-oxadiazol-5-yl]propan-1-one] | 1.32
COc1ccc(-c2cc(CCC(=O)N3CCN(c4cc(C)ccc4C)CC3)on2)cc1 [1-[4-(2,5-dimethylphenyl)piperazin-1-yl]-3-[3-(4-methoxyphenyl)-1,2-oxazol-5-yl]propan-1-one] | 2.54
COc1ccc(-c2ccc(CCC(=O)N3CCN(c4cc(C)ccc4C)CC3)[nH]2)cc1 [1-[4-(2,5-dimethylphenyl)piperazin-1-yl]-3-[5-(4-methoxyphenyl)-1H-pyrrol-2-yl]propan-1-one] | 5.22
COc1ccc(-c2noc(CCC(=O)N3CCN(c4ccccc4Cl)CC3)n2)cc1 [1-[4-(2-chlorophenyl)piperazin-1-yl]-3-[3-(4-methoxyphenyl)-1,2,4-oxadiazol-5-yl]propan-1-one] | 2.39
COc1ccc(-c2noc(CCC(=O)N3CCN(c4ccccc4F)CC3)n2)cc1 [1-[4-(2-fluorophenyl)piperazin-1-yl]-3-[3-(4-methoxyphenyl)-1,2,4-oxadiazol-5-yl]propan-1-one] | 0.733
Cc1ccc(C)c(N2CCN(C(=O)CCc3nc(-c4ccccc4Br)no3)CC2)c1 [3-[3-(2-bromophenyl)-1,2,4-oxadiazol-5-yl]-1-[4-(2,5-dimethylphenyl)-1-piperazinyl]-1-propanone] | 3.13
COc1ccc(-c2noc(CCC(=O)N3CCN(c4ccccc4OC)CC3)n2)cc1 [3-[3-(4-methoxyphenyl)-1,2,4-oxadiazol-5-yl]-1-[4-(2-methoxyphenyl)-1-piperazinyl]-1-propanone] | 1.32
COc1ccc(-c2noc(CCC(=O)N3CCN(c4ccc(C)cc4)CC3)n2)cc1 [3-[3-(4-methoxyphenyl)-1,2,4-oxadiazol-5-yl]-1-[4-(4-methylphenyl)piperazin-1-yl]propan-1-one] | 0.708
COc1ccc(-c2noc(CCC(=O)N3CCN(c4cccc(OC)c4)CC3)n2)cc1 [KUC103349N] | 6.46
COc1ccc(-c2noc(CCCC(=O)N3CCN(c4cc(C)ccc4C)CC3)n2)cc1 [KUC103353N] | 16.2
Cc1ccc(C)c(N2CCN(C(=O)CCc3nc(-c4ccc(F)cc4)no3)CC2)c1 [KUC103364N] | 0.335
Cc1ccc(C)c(N2CCN(C(=O)CCc3nc(-c4cccc(Br)c4)no3)CC2)c1 [KUC103367N] | 3.66
COc1ccc(-c2noc(CCC(=O)N3CCN(c4ccccc4Br)CC3)n2)cc1 [KUC103370N] | 3.22
Cc1ccc(C)c(N2CCN(C(=O)CCc3nc(-c4ccccc4F)no3)CC2)c1 [KUC103401N] | 0.908
COc1ccc(-c2noc(CCC(=O)N3CCC(c4cc(C)ccc4C)CC3)n2)cc1 [KUC103432N] | 2.51
COc1ccc(-c2ccc(CCC(=O)N3CCN(c4cc(C)ccc4C)CC3)o2)cc1 [KUC103447N] | 15.1
Cc1ccc(C)c(N2CCN(C(=O)CCc3nc(-c4ccccc4)no3)CC2)c1 [UNM-0000306070] | 0.841
Cc1ccc(C)c(N2CCN(C(=O)CCc3nc(-c4ccc(Br)cc4)no3)CC2)c1 [UNM-0000306072] | 2.94
COc1ccc(-c2noc(CCC(=O)N3CCN(c4ccccc4C(F)(F)F)CC3)n2)cc1 [UNM-0000306082] | 2.1
Cc1ccc(C)c(N2CCN(C(=O)CCc3nc(-c4ccc(Cl)cc4)no3)CC2)c1 [UNM-0000306083] | 1.79
Cc1ccc(C)c(N2CCN(C(=O)CCc3nc(-c4cccc(Cl)c4)no3)CC2)c1 [UNM-0000306086] | 2.9
